Assay results reported in PMC6367500, “18β-glycyrrhetyl-3-O-sulfate would be a causative agent of licorice-induced pseudoaldosteronism” (Scientific Reports, 2019).
Read-outs that look alike come from different tables or passages of the source.

Experiments:
[1] = target: T1, rat type 2 11β-hydroxysteroid dehydrogenase (11β-HSD2) (Rattus norvegicus, UniProt P50233); details: rat kidney microsome fraction; cited from earlier work
T1 construct: each compound were mixed with the rat kidney microsome fraction, and incubated at 37 °C for 30 min; from tissue; host or cells: rat kidney microsome fraction
T1 sequence (P50233 1-400): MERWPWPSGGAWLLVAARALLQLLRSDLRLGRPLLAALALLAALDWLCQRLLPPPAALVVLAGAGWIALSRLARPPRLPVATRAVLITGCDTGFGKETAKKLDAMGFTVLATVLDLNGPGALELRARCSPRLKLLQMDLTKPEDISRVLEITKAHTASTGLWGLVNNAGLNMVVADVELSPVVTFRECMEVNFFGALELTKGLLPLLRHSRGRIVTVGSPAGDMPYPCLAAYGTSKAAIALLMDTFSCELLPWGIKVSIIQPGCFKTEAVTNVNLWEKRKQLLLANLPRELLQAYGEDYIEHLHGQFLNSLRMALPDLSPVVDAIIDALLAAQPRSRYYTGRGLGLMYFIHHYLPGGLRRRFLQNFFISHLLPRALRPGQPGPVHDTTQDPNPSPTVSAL

[2] = target: T2, OAT1 (Homo sapiens, UniProt Q4U2R8); details: cited from earlier work
T2 construct: expressed in transfected cells; host or cells: MDCK II cells
T2 sequence (Q4U2R8 1-563): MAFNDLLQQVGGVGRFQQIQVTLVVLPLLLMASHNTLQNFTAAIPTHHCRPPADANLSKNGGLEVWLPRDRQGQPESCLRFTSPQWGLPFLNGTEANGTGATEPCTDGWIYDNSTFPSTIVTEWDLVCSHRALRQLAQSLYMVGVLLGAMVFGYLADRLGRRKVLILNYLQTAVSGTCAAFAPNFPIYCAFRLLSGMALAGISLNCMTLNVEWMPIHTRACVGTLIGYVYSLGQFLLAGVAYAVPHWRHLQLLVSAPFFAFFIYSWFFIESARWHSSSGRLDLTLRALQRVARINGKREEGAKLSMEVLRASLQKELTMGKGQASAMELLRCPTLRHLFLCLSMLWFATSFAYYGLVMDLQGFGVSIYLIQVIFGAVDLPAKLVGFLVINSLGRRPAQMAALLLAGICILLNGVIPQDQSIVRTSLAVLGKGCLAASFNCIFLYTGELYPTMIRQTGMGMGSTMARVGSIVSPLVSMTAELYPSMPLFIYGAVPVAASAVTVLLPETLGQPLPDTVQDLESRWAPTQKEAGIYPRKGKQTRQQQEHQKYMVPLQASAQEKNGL

[3] = target: T3, OAT3 (Homo sapiens, UniProt Q8TCC7); details: cited from earlier work
T3 construct: expressed in transfected cells; host or cells: MDCK II cells
T3 sequence (Q8TCC7 1-542): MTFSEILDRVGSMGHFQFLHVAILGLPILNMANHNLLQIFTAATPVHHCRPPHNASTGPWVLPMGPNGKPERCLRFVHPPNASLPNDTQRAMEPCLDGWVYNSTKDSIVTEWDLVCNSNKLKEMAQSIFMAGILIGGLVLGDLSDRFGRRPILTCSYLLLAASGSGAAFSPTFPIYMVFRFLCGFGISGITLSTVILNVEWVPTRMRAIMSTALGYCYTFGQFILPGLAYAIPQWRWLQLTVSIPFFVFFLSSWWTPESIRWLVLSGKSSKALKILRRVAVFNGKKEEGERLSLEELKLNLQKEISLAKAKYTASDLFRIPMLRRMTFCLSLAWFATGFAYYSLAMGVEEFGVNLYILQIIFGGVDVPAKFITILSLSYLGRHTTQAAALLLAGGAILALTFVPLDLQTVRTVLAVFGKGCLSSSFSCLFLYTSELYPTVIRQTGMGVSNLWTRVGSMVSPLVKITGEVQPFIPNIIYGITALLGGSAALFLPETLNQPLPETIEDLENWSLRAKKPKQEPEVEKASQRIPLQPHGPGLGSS

[4] = target: T1, rat type 2 11β-hydroxysteroid dehydrogenase (11β-HSD2); assay: Inhibition of 11β-HSD2 in rat kidney microsome fraction; type: biochemical; details: for IC50: 37 °C, 30 min
Experimental: Compounds 2 and 3 inhibited 11β-HSD2 in a rat kidney microsome fraction in a concentrations-dependent manner (Fig. 2).
Figure 2 Inhibitory effects of 2 and 3 on 11β-HSD2 using rat kidney microsome. [^3H] cortisone and each compound were mixed with the rat kidney microsome fraction, and incubated at 37 °C for 30 min. Then, the amount of [^3H] cortisol was measured. Data are expressed as mean ± S.E. (n = 4) of the percentage relative to the amount of [^3H] cortisol in the mixture without samples. **P < 0.01 and ***P < 0.001 compared with the groups without the samples by Dunnett’s multiple t-test for compounds 2 and 3, and by Student’s t-test for GA.
Assays were conducted as described by Diederich et al.[20] with slight modifications as described in our previous report.

[5] = target: T2, OAT1; assay: Uptake into MDCK II cells stably expressing OAT1; type: cell-based; details: pooled EHBR plasma, pH 5.5, 37 °C, 15 min
Experimental: (§1) Kidneys were collected from normal SD rats, and the kidney slices were incubated with the plasma samples of EHBRs at 37 °C or 4 °C for 2 h (A–C). MDCK II cells stably expressing OAT1 or OAT3 were incubated with the plasma samples of EHBRs at 37 °C for 15 min (D–F). […] Data are expressed as mean ± S.E. (n = 3 for (C, D), and (E); n = 6 for (A, B), and F). *P < 0.05 and **P < 0.01 vs 4 °C group by Student’s t-test for (A–C), and vs mock cells by Dunnett’s multiple t-test for (D–F).
(§2) Uptake studies using rat kidney slices and cells stably expressing OAT1 and OAT3 were conducted with the same protocol as in our previous study.

[6] = target: T3, OAT3; assay: Uptake into MDCK II cells stably expressing OAT3; type: cell-based; details: pooled EHBR plasma, pH 5.5, 37 °C, 15 min
Experimental: as §1, §2

| inhibitory titer on 11β-HSD2 compared with GA [4] | IC50 [4] [nM] | uptake into cells expressing OAT1 compared with mock cells [5] | uptake into cells expressing OAT3 compared with mock cells [6] | SMILES | IC50 [1] [nM] | substrate of OAT1 [2] | substrate of OAT3 [3] |
| --- | --- | --- | --- | --- | --- | --- | --- |
|  |  |  |  | CC1(C)[C@@H](O[C@@H]2O[C@H](C(=O)O)[C@@H](O)[C@H](O)[C@H]2O)CC[C@]2(C)[C@H]3C(=O)C=C4[C@@H]5C[C@@](C)(C(=O)O)CC[C@]5(C)CC[C@@]4(C)[C@]3(C)CC[C@@H]12 [3MGA, 3-monoglucuronyl glycyrrhetinic acid, reference compound] | 250 | substrate | substrate |
|  |  |  |  | CC1(C)[C@@H](OS(=O)(=O)O)CC[C@]2(C)[C@H]3C(=O)C=C4[C@@H]5C[C@@](C)(C(=O)O[C@@H]6O[C@H](C(=O)O)[C@@H](O)[C@H](O)[C@H]6O)C[C@H](O)[C@]5(C)CC[C@@]4(C)[C@]3(C)CC[C@@H]12 [compound 1, 22α-hydroxy-18β-glycyrrhetyl-3-O-sulfate-30-glucuronide] | 2000 | substrate | substrate |
| slightly higher than that of GA | 110 | significantly higher | significantly higher | CC1(C)[C@@H](OS(=O)(=O)O)CC[C@]2(C)[C@H]3C(=O)C=C4[C@@H]5C[C@@](C)(C(=O)O)C[C@H](O)[C@]5(C)CC[C@@]4(C)[C@]3(C)CC[C@@H]12 [compound 2, 22α-hydroxy-18β-glycyrrhetyl-3-O-sulfate] |  |  |  |
| slightly higher than that of GA | 100 | significantly higher | significantly higher | CC1(C)[C@@H](OS(=O)(=O)O)CC[C@]2(C)[C@H]3C(=O)C=C4[C@@H]5C[C@@](C)(C(=O)O)CC[C@]5(C)CC[C@@]4(C)[C@]3(C)CC[C@@H]12 [compound 3, 18β-glycyrrhetyl-3-O-sulfate] |  |  |  |
